Laboratory results from patent publication US20150335719A1, “Intravitreal Injection of a Chimeric Phage Endolysin Ply187; Protection from Staphylococcus aureus Endophthalmitis” (priority 2014, published 2015).

Assays:
[1] = tested on: S. aureus strain RN6390; experiment: Resistance development assay by repeated exposure in an MIC assay; format: cell-based, Staphylococcus aureus; conditions: RN6390, up to 10 rounds of exposure
Method: Error bars represent SEM for three independent experiments performed in triplicates. […] Cells surviving at half (½) of the MIC value were used as an inoculum for each subsequent round of exposure. The change in susceptibility is recorded and presented as fold change resistance from day 1 to 10 of exposure and also after 5 days of growth (without any selection pressure) following the 10th day (represented as 10+5). The data represent means±SEM of two independent experiments performed in triplicate.
To verify and quantify the lytic activity against live S. aureus, we have tested Ply187AN-KSH3b in the Turbidity Reduction Assay. The turbidity assay measures the drop in optical density (OD) resulting from lysis of the target bacteria with the phage endolysin-derived protein. Turbidity reduction assays by chimeric Ply187AN-KSH3b were performed in a 96 well plate as described previously by Becker et al. (2009a, 2009b, supra). Briefly, S. aureus strains/isolates RN6390, USA 300, and clinical isolates R2932, R2952 and R3000 were grown to logarithmic phase (OD600 0.4-0.6) at 37° C. in tryptic Soy broth (TSB). The culture was harvested by centrifugation and the pellet was resuspended in assay buffer (400 mM NaCl, 20 mM Tris HCl, 1% glycerol, pH 7.5). Bacterial cultures (100 μl/well) were mixed with 100 μl of (as per MIC) of chimeric Ply187AN-KSH3b protein diluted in the same assay buffer. The reduction in the turbidity was measured after every 5 min up to 1 h using a micro plate reader. EB diluted in the same assay buffer (without chimeric Ply187AN-KSH3b protein) was used as a control (EB C). Resistance development against chimeric Ply187AN-KSH3b was tested using repeated exposure in an MIC assay as described by Rodriguez-Rubio and co-workers (Rodriguez-Rubio et al., PLoS One 8:e64671.). In brief, bacterial cultures (10^5 CFU/well) were exposed overnight to a 2-fold serial dilution of chimeric Ply187AN-KSH3b, lysostaphin, and gentamicin, where the latter serve as controls. […]

[2] = tested on: S. aureus (strain RN6390, USA 300, R 2932, R 2952, R 3000) biofilms; experiment: Biofilm disruption (Live/Dead BacLight staining and CFU count); format: cell-based, Staphylococcus aureus; conditions: 24 h biofilms treated for 30 min
Method: FIGS. 2A-2E depicts the biofilm disruption activity of chimeric Ply187AN-KSH3b. In FIG. 2A-2E, either chimeric Ply187AN-KSH3b or EB (EB C) or Gentamicin (for MDR/MRSA strains/isolates) was applied to cover slips containing S. aureus RN6390 (FIG. 2A), USA 300 (FIG. 2B), R 2932 (FIG. 2C), R 2952 (FIG. 2D) and R3000 (FIG. 2E) biofilms for 30 min. Bacterial killing was assessed via Live/Dead™ staining and subsequent fluorescence microscopy. FIG. 2F depicts the viability of biofilm associated bacteria enumerated by CFU count. Error bars represent the mean±SEM of two independent experiments performed in triplicate.
Biofilm disruption by the chimeric Ply187AN-KSH3b was observed using Live/Dead BacLight™ staining which takes advantage of SYTO™ 9, a green-fluorescent nucleic acid stain and propidium iodide that fluoresces red. SYTO™ 9 labels a bacterial population with an intact membrane and fluoresces green. In contrast, propidium iodide penetrates bacteria with damaged membranes and fluoresces red. Briefly, static biofilms of S. aureus (strain RN6390, USA 300, R 2932, R 2952, R 3000) were grown on glass cover slips in 6 well tissue culture plates in fresh TSB media seeded with S. aureus. After incubation at 37° C. for 24 h, the biofilms were treated for an additional 30 min with chimeric Ply187AN-KSH3b (as per MIC) diluted in EB or with EB/gentamicin alone. The biofilms were then stained with the Live/Dead BacLight™ bacterial viability kit (Invitrogen, Carlsbad, Calif.), per manufacturer's instruction. The cover slips were washed three times with PBS to remove excess stain and cell debris, mounted with mounting oil on a glass slide, and examined with an Eclipse 90i fluorescence microscope (Nikon, Melville, N.Y.).

Row | Substance | fold change in resistance [1] [fold] | biofilm disruption by Live/Dead staining [2]
1 | lysostaphin | 128 | –
2 | gentamicin [reference compound] | 16 | green fluorescence
